Laboratory results taken from patent US20050222147A1, “Process for the preparation of morpholine derivatives and intermediates therefore” (priority 2000, published 2005).
Where a name gives a salt, the structure may show the parent alone.

Experiments:
CCR-3 = target: T1, CCR-3 (Homo sapiens, UniProt P51677); test: CCR-3 competition binding SPA (scintillation proximity assay); settings: read-out: CCR-3 Binding Assay (pIC50) (converted)
T1 construct: expressed in transfected cells
T1 sequence (P51677 1-355): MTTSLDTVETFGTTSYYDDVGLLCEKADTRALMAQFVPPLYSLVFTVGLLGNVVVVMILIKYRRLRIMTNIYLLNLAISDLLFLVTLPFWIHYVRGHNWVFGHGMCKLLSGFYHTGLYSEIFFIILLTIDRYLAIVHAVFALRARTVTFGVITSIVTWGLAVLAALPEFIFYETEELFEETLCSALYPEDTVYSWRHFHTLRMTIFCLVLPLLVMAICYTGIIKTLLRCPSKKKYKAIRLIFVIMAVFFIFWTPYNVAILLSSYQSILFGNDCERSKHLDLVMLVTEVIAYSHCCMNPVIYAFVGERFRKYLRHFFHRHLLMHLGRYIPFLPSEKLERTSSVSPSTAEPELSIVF
Method: A CCR-3 competition binding SPA (scintillation proximity assay) was used to assess the affinity of novel compounds for CCR-3. Membranes prepared from K562 cells stably expressing CCR-3 (2.51 μg/well) were mixed with 0.25 mg/well wheat-germ agglutinin SPA beads (Amersham) and incubated in binding buffer (HEPES 50 mM, CaCl2 1 mM, MgCl2 5 mM, 0.5% BSA) at 4° C. for 1.5 hr. Following incubation, 20 pM of [^125I) eotaxin (Amersham) and increasing concentrations of compound (1 pM to 30 μM) were added and incubated in a 96 well plate for 2 hr at 22° C. then counted on a Microbeta plate counter. The total assay volume was 100 μl. Competition binding data were analysed by fitting the data with a four parameter logistic equation. Data are presented as the mean pIC50 values (negative logarithm of the concentration of compound which inhibits [^125I] eotaxin binding by 50%) from at least two experiments.

eosinophil chemotaxis = test: Eosinophil chemotaxis assay (eotaxin-induced); type: cell-based, human; settings: functional pKi (fpKi)
Method: (b) Eosinophil Chemotaxis Assay.
Compounds were evaluated for their inhibitory effect on eosinophil chemotaxis. Eosinophils were purified from human peripheral blood by standard CD16 cell depletion using a Miltenyi cell separation column and a magnetic Super Macs magnet as previously described (Motegi & Kita, 1998; J. Immunology. 161:4340-6). Cells were re-suspended in RPMI 1640/10% FCS solution and incubated with calcein-AM (Molecular Probes) at 37° C. for 30 mins. Following incubation, the eosinophils were centrifuged at 400 g for 5 min and re-suspended in RPMI/FCS at 2.2 million/ml. Cells. were then incubated in the presence of increasing concentration of compounds (1 pM to 30 μM) at 37° C. for 30 mins. For control responses cells were incubated with RPMI/FCS only. The agonist eotaxin (either a concentration response curve or for the functional inhibition curves an EC80 concentration) was added to the lower chamber of a 96 well chemotaxis plate (5 μm filter: Receptor Technologies). Eosinophils (50 μl of 2 million/ml cells) were added to the top chamber of the filter plate and incubated at 37° C. for 45 mins. Cells remaining on top of the chemotaxis filter were removed and the number of eosinophils which had migrated were quantified by reading the plate on a fluorescent plate reader. Inhibition curves for the effect of compounds on eosinophil chemotaxis were analysed by fitting the data with a four parameter logistic equation. Functional pK1 values (fpK1) were generated using the equation below (Lazareno & Birdsall, 1995. Br. J. Pharmacol 109: 1110-9). [formula] (c) Guinea-pig Ovalbumin Model

| IC50 (CCR-3) [nM] | CCR-3 Eosinophil Chemotaxis Assay (fpKi) (eosinophil chemotaxis) | Compound |
| --- | --- | --- |
| 12.6 | 8.2 | NS(=O)(=O)c1cccc(CC(=O)NC[C@H]2CN(Cc3ccc(Cl)c(Cl)c3)CCO2)c1 [Example 162] |
| 339 |  | O=C(Cc1ccc(C(F)(F)F)cc1)NCC1CN(Cc2ccc(Cl)c(Cl)c2)CCO1 (stereo not drawn) [Example 14] |
| 145 |  | O=C(Cc1cccc(Cl)c1)NCC1CN(Cc2ccc(Cl)c(Cl)c2)CCO1 (stereo not drawn) [Example 8, 2-(3-Chlorophenyl)-N-{[4-(3,4-dichlorobenzyl)morpholin-2-yl]methyl}acetamide] |
| 6.76 |  | O=C(Cn1nnc(-c2ccccc2)n1)NC[C@H]1CN(Cc2ccc(Cl)c(Cl)c2)CCO1 [Example 44] |
| 240 |  | O=C(Cc1cc(Cl)ccc1Cl)NCC1CN(Cc2ccc(Cl)c(Cl)c2)CCO1 (stereo not drawn) [Example 13, N-{[4-(3,4-Dichlorobenzyl)morpholin-2-yl]methyl}-2-(2,5-dichlorophenyl)acetamide] |
|  | 6.24 | O=C(Cc1cc(C(F)(F)F)cc(C(F)(F)F)c1)NCC1CN(Cc2ccc(Cl)c(Cl)c2)CCO1 (stereo not drawn) [Example 17, 2-[3,5-Bis(trifluoromethyl)phenyl]-N-{[4-(3,4-dichlorobenzyl)morpholin-2-yl]methyl}acetamide] |
| 100 |  | O=C(Cc1ccco1)NCC1CN(Cc2ccc(Cl)c(Cl)c2)CCO1 (stereo not drawn) [Example 38, N-{[4-(3,4-Dichlorobenzyl)morpholin-2-yl]methyl}-2-(2-furyl)acetamide] |
| 77.6 |  | CSc1ccc(CC(=O)NCC2CN(Cc3ccc(Cl)c(Cl)c3)CCO2)cc1 (stereo not drawn) [Example 5, N-{[4-(3,4-Dichlorobenzyl)morpholin-2-yl]methyl}-2-[4-(methylthio)phenyl]acetamide] |
| 398 |  | Cc1oc(-c2ccccc2)nc1CC(=O)NC[C@@H]1CN(Cc2ccc(Cl)c(Cl)c2)CCO1 [Example 55, N-{[(2R)-4-(3,4-Dichlorobenzyl)morpholin-2-yl]methyl}-2-(5-methyl-2-phenyl-1,3-oxazol-4-yl)acetamide] |
| 13.2 |  | CS(=O)(=O)Nc1ccc(CC(=O)NCC2CN(Cc3ccc(F)c(F)c3)CCO2)cc1 (stereo not drawn) [Example 45] |
|  | 7.32 | O=C(Cc1ccsc1)NCC1CN(Cc2ccc(Cl)c(Cl)c2)CCO1 (stereo not drawn) [Example 32, N-{[4-(3,4-Dichlorobenzyl)morpholin-2-yl]methyl}-2-thien-3-ylacetamide] |
|  | 8.07 | CS(=O)(=O)Nc1cccc(CC(=O)NC[C@H]2CN(Cc3ccc(Cl)s3)CCO2)c1 [Example 49, N-({(2S)-4-[(5-Chlorothien-2-yl)methyl]morpholin-2-yl}methyl)-2-{3-[(methylsulfonyl)amino]phenyl]acetamide] |
| 155 |  | Cc1nn(CC(=O)NCC2CN(Cc3ccc(Cl)c(Cl)c3)CCO2)c(C)c1Br (stereo not drawn) [Example 35] |
| 24 | 7.96 | Cc1oc(-c2ccccc2)nc1CC(=O)NC[C@H]1CN(Cc2ccc(Cl)c(Cl)c2)CCO1 [Example 54, N-{[(2S)-4-(3,4-Dichlorobenzyl)morpholin-2-yl]methyl}-2-(5-methyl-2-phenyl-1,3-oxazol-4-yl)acetamide] |
|  | 9.32 | O=C(Cc1csc(-c2cnccn2)n1)NC[C@H]1CN(Cc2ccc(Cl)c(Cl)c2)CCO1 [Example 42, N-([(2S)-4-(3,4-Dichlorobenzyl)morpholin-2-yl]methyl}-2-(2-pyrazin-2-yl-1,3-thiazol-4-yl)acetamide] |
| 60.3 |  | C[C@H]1CO[C@H](CNC(=O)Cc2ccccc2)CN1Cc1ccc(Cl)c(Cl)c1 (relative stereo) [Example 25, N-{[(trans)4-(3,4-Dichlorobenzyl)-5-methylmorpholin-2-yl]methyl}-2-phenylacetamide] |
|  | 7.99 | Cc1oc(-c2ccc(F)cc2)nc1CC(=O)NCC1CN(Cc2ccc(Cl)c(Cl)c2)CCO1 (stereo not drawn) [Example 41, N-{[4-(3,4-Dichlorobenzyl)morpholin-2-yl]methyl}-2-[2-(4-fluorophenyl)-5-methyl-1,3-oxazol-4-yl]acetamide] |
| 158 |  | NC(=O)c1ccc(CC(=O)NCC2CN(Cc3ccc(Cl)c(Cl)c3)CCO2)cc1 (stereo not drawn) [Example 10, 4-[2-({[4-(3,4Dichlorobenzyl)morpholin-2-yl]methyl}amino)-2-oxoethyl]benzamide] |
| 138 |  | O=C(Cc1ccc(F)c(F)c1)NCC1CN(Cc2ccc(Cl)c(Cl)c2)CCO1 (stereo not drawn) [Example 6, N-{[4-(3,4-Dichlorobenzyl)morpholin-2-yl]methyl}-2-(3,4-difluorophenyl)acetamide] |
| 15.1 |  | CN(C)S(=O)(=O)c1ccc(CC(=O)NCC2CN(Cc3ccc(Cl)c(Cl)c3)CCO2)cc1 (stereo not drawn) [Example 7, N-{[4-(3,4-Dichlorobenzyl)morpholin-2-yl]methyl}-2-{4-[(dimethylamino)sulfonyl]phenyl}acetamide salt with formic acid (1:1)] |
|  | 8.31 | CS(=O)(=O)c1ccc(CC(=O)NC[C@H]2CN(Cc3ccc(Cl)c(Cl)c3)CCO2)cc1 (single isomer, unassigned) [Example 39] |
| 513 |  | COc1ccc2[nH]c(C)c(CC(=O)NCC3CN(Cc4ccc(Cl)c(Cl)c4)CCO3)c2c1 (stereo not drawn) [Example 31, N-{[4-(3,4-Dichlorobenzyl)morpholin-2-yl]methyl}-2-(5-methoxy-2-methyl-1H-indol-3-yl)acetamide] |
|  | 7.39 | C[C@H]1CO[C@H](CNC(=O)Cc2ccc(Cl)cc2)CN1Cc1ccc(Cl)c(Cl)c1 (relative stereo) [Example 27, 2-(4-Chlorophenyl)-N-{[(trans)-4-(3,4-dichlorobenzyl)-5-methylmorpholin-2-yl]methyl}acetamide] |
|  | 7.15 | O=C(Cc1cccc(F)c1)NCC1CN(Cc2ccc(Cl)c(Cl)c2)CCO1 (stereo not drawn) [Example 3, N-{[4-(3,4-Dichlorobenzyl)morpholin-2-yl]methyl}-2-(3-fluorophenyl)acetamide] |
| 832 |  | Cc1cc(F)ccc1CC(=O)NCC1CN(Cc2ccc(Cl)c(Cl)c2)CCO1 (stereo not drawn) [Example 19, N-{[4-(3,4-Dichlorobenzyl)morpholin-2-yl]methyl}-2-(4-fluoro-2-methylphenyl)acetamide] |
| 4.07 |  | O=C(Cc1cccc(C(=O)NC2CC2)c1)NCC1CN(Cc2ccc(Cl)c(Cl)c2)CCO1 (stereo not drawn) [Example 53, N-Cyclopropyl-3-[2-({[(3,4-dichlorobenzyl)morpolin-2-yl]methyl}amino)-2-oxoethyl]benzamide] |
| 72.4 |  | CS(=O)(=O)Nc1ccc(CC(=O)NC[C@H]2CN(Cc3ccc(F)cc3)CCO2)cc1 [Example 46, N-{[(2S)-4-(4-Fluorobenzyl)morpholin-2-yl]methyl}-2-{4-[(methylsulfonyl)amino]phenyl}acetamide] |
| 110 |  | COc1ccc(CC(=O)NCC2CN(Cc3ccc(Cl)c(Cl)c3)CCO2)cc1 (stereo not drawn) [Example 22, N-{[4-(3,4-Dichlorobenzyl)morpholin-2-yl]methyl}-2-(4-methoxyphenyl)acetamide] |

| Compound | IC50 (CCR-3) [nM] | CCR-3 Eosinophil Chemotaxis Assay (fpKi) (eosinophil chemotaxis) |
| --- | --- | --- |
| CN(C)c1ccc(CC(=O)NCC2CN(Cc3ccc(Cl)c(Cl)c3)CCO2)cc1.O=CO (stereo not drawn) [Example 12, N-{[4-(3,4-Dichlorobenzyl)morpholin-2-yl]methyl}-2-[4-(dimethylamino)phenyl]acetamide salt with formic acid (1:1)] |  | 6.82 |
| O=C(Cc1csc(-c2cnccn2)n1)NCC1CN(Cc2ccc(Cl)c(Cl)c2)CCO1 (stereo not drawn) [Example 37, N-{[4-(3,4-Dichlorobenzyl)morpholin-2-yl]methyl}-2-(2-pyrazin-2-yl-1,3-thiazol-4-yi)acetamide] |  | 7.97 |
| CS(=O)(=O)c1ccc(CC(=O)NCC2CN(Cc3ccc(Cl)c(Cl)c3)CCO2)cc1.O=CO (stereo not drawn) [Example 2, N-{[4-(3,4-Dichlorobenzyl)morpholin-2-yl]methyl}-2-[4-(methylsulfonyl)phenyl]acetamide salt with formic acid (1:1)] |  | 6.51 |
